Values quoted from earlier work in US20020132751A1, “Detergent compositions” (Unilever Home & Personal Care USA, Division of Conopco, Inc., priority 2000, published 2002).

Conditions: grams of solid to form a saturated solution in 100 grams of water at 20° C.

SMILES | Water Solubility (g/100 g)
O=P(O)(O)OP(=O)(O)OP(=O)(O)O [Sodium tripolyphosphate anhydrous] | 15
O=BO[O-].[Na+] [Sodium perborate anhydrous] | 3.7
